The source of these data is patent US11214803B2, “Modulators of YAP1 expression” (Ionis Pharmaceuticals, Inc., priority 2019, dated 2022).

The data set has as its system Yap1 mRNA. Put plainly: Antisense inhibition of human Yap1 in A-431 cells by cEt gapmers, single dose (Example 3, RTS36584). The class given is cell-based. Summed up: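 Read-out is Yap1 mRNA as percent of untreated control, by quantitative RT-PCR normalized to total RNA (RiboGreen). Cells (A-431) received 2,000 nM of 3-10-3 cEt phosphorothioate gapmer via free uptake for roughly 48 hours.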

Setting [1] is: Table 10, A-431 cells, 5,000 cells per well, free uptake, 2,000 nM oligonucleotide, approx. 48 hours, primer probe set RTS36584, Yap1 mRNA normalized to RIBOGREEN, percent of untreated control.
Setting [2] is: Table 26, Yap1 mRNA by 3-10-3 cEt gapmers targeting SEQ ID NO.: 1, and 2, percent of untreated control.
The mark [3] stands for this setting: Table 13, A-431 cells, 5,000 cells per well, free uptake, 2,000 nM modified oligonucleotide, approx. 48 hours, RTS36584, normalized to RIBOGREEN, Yap1 mRNA relative to untreated control cells.
[4] abbreviates: Table 11, A-431 cells, 5,000 cells per well, free uptake, 2,000 nM oligonucleotide, approx. 48 hours, primer probe set RTS36584, Yap1 mRNA normalized to RIBOGREEN, percent of untreated control.
[5] abbreviates: Table 35, Yap1 mRNA as percent of untreated control, 3-10-3 cEt gapmers targeting SEQ ID NO: 1 and 2, single dose.
Where [6] appears, read: Table 12, A-431 cells, 5,000 cells per well, free uptake, 2,000 nM modified oligonucleotide, approx. 48 hours, RTS36584, normalized to RIBOGREEN, Yap1 mRNA relative to untreated control cells.
The mark [7] stands for this setting: Table 27, Yap1 mRNA by 3-10-3 cEt gapmers targeting SEQ ID NO.: 1, and 2, percent of untreated control.
Where [8] appears, read: Table 9, A-431 cells, 5,000 cells per well, free uptake, 2,000 nM, approximately 48 hours, RTS36584, normalized to RIBOGREEN, Yap1 mRNA relative to untreated control cells.
The mark [9] stands for this setting: Table 29, Yap1 mRNA as percent of untreated control, 3-10-3 cEt gapmers targeting SEQ ID NO.: 1, and 2.
Where [10] appears, read: Table 8, A-431 cells, 5,000 cells per well, free uptake, 2,000 nM, approximately 48 hours, RTS36584, normalized to RIBOGREEN, Yap1 mRNA relative to untreated control cells.
The mark [11] stands for this setting: Table 28, Yap1 mRNA as percent of untreated control, 3-10-3 cEt gapmers targeting SEQ ID NO.: 1, and 2.

Strand notation (5' to 3'): a small letter for the sugar, then the base; units joined by * are phosphorothioate-linked, units joined directly phosphodiester-linked; [ ] holds rarer units or linkages, { } end groups; capitals alone tell only the bases. k = constrained ethyl (cEt); [5mC] = 5-methylcytosine; d = 2'-deoxy (DNA)

For the substance “958617 (antisense kG*kA*kG*dG*dT*dG*dG*dT*d[5mC]*dT*dT*dG*dT*kT*k[5mC]*kT) [Compound 958617]”, the “YAP1 (% UTC)” value under setting [1] is 40 % UTC.
Consider “1075884 (antisense kA*kT*kT*dA*dG*dT*dA*dA*dT*dG*dA*d[5mC]*dT*kA*kA*k[5mC]) [compound 1075884]”, for which, under setting [2], the “YAP1 (% UTC)” value came out at 116 % UTC.
Turning to “1075724 (k[5mC]*kT*kA*dT*d[5mC]*dT*dG*dT*d[5mC]*dA*dG*dT*dT*kA*kT*k[5mC]; antisense) [compound 1075724]”, under setting [2], the “YAP1 (% UTC)” value is reported as 44 % UTC.
On to “958645 (kG*k[5mC]*k[5mC]*d[5mC]*dA*dT*dA*dG*dT*dT*dG*dA*d[5mC]*kA*kG*kG; antisense) [Compound 958645]”, for which, under setting [3], the “YAP1 (% UTC)” value worked out at 54 % UTC.
As for “1074316 (antisense kG*kG*kA*dT*dT*dG*dA*dT*dA*dT*dT*d[5mC]*d[5mC]*kG*k[5mC]*kA) [compound 1074316]”, the “YAP1 (% UTC)” value under setting [2] is recorded as 33 % UTC.
For the substance “958493 (kA*kA*kA*d[5mC]*dA*dG*dT*d[5mC]*dT*dT*d[5mC]*dA*dG*k[5mC]*k[5mC]*kT; antisense) [Compound 958493]”, under setting [4], the “YAP1 (% UTC)” value is listed as 16 % UTC.
As to “1074933 (antisense kA*kG*kG*dA*dG*dA*d[5mC]*dT*dA*dT*dA*d[5mC]*dA*kA*k[5mC]*kA) [compound 1074933]”, the “YAP1 (% UTC)” value under setting [5] was 72 % UTC.
Regarding “1075669 (antisense kA*kA*kA*dT*dT*dA*dT*dT*dG*dG*dT*dG*dA*k[5mC]*kA*k[5mC]) [compound 1075669]”, the “YAP1 (% UTC)” value under setting [5] amounted to 70 % UTC.
On to “958439 (antisense kG*k[5mC]*kG*d[5mC]*d[5mC]*d[5mC]*d[5mC]*dG*dG*d[5mC]*dT*d[5mC]*d[5mC]*kA*k[5mC]*kT) [Compound 958439]”, for which the “YAP1 (% UTC)” value under setting [6] was 77 % UTC.
Turning to “958682 (k[5mC]*k[5mC]*kA*dT*dG*dA*dG*dG*dG*dA*d[5mC]*dT*d[5mC]*k[5mC]*k[5mC]*kA; antisense) [Compound 958682]”, the “YAP1 (% UTC)” value under setting [1] was 123 % UTC.
With “1074893 (antisense kG*k[5mC]*kT*dG*dA*dA*dG*dT*dT*dT*dA*dG*d[5mC]*k[5mC]*kT*kG) [compound 1074893]”, the “YAP1 (% UTC)” value under setting [7] worked out at 78 % UTC.
“1076565 (k[5mC]*kA*kT*dT*dA*dA*dG*dT*d[5mC]*dA*d[5mC]*dA*dG*k[5mC]*kA*kT; antisense) [compound 1076565]”: the “YAP1 (% UTC)” value under setting [5] is 74 % UTC.
As for “958456 (antisense kG*kG*k[5mC]*d[5mC]*dA*dG*dA*dG*dA*d[5mC]*dT*dA*d[5mC]*kT*k[5mC]*k[5mC]) [Compound 958456]”, the “YAP1 (% UTC)” value under setting [8] is given as 90 % UTC.
For “958485 (kA*kG*kA*dG*dG*dT*d[5mC]*dA*dG*d[5mC]*dA*dA*dT*kA*k[5mC]*kA; antisense) [Compound 958485]”, under setting [3], the “YAP1 (% UTC)” value is 3 % UTC.
Regarding “1074228 (antisense kG*kA*k[5mC]*dT*dG*dT*d[5mC]*dG*dA*dA*dG*dA*dT*kG*k[5mC]*kT) [compound 1074228]”, the “YAP1 (% UTC)” value (Table 34, Yap1 mRNA as percent of untreated control, 3-10-3 cEt gapmers targeting SEQ ID NO: 1 and 2, single dose) is 17 % UTC.
On to “1074671 (antisense k[5mC]*kA*kA*dG*dT*dA*dG*d[5mC]*dT*dT*dT*dG*dA*kT*k[5mC]*kT) [compound 1074671]”, for which the “YAP1 (% UTC)” value under setting [9] amounted to 8 % UTC.
For “958621 (antisense kA*kA*k[5mC]*dG*dA*dG*dG*dG*dT*d[5mC]*dA*dA*dG*k[5mC]*k[5mC]*kT) [Compound 958621]”, the “YAP1 (% UTC)” value under setting [8] was found to be 29 % UTC.
Turning to “1075951 (antisense k[5mC]*kA*k[5mC]*dG*dG*dA*dA*dG*dA*dG*d[5mC]*dT*dT*kG*k[5mC]*kA) [compound 1075951]”, under setting [9], the “YAP1 (% UTC)” value was determined as 34 % UTC.
“958556 (k[5mC]*kA*kA*d[5mC]*d[5mC]*dA*dA*d[5mC]*dT*dA*dT*dT*dA*k[5mC]*kT*kT; antisense) [Compound 958556]”: under setting [8], the “YAP1 (% UTC)” value is recorded as 10 % UTC.
Turning to “1075565 (kT*kA*kT*dA*dT*dA*dA*d[5mC]*dA*dG*dG*d[5mC]*d[5mC]*kA*k[5mC]*k[5mC]; antisense) [compound 1075565]”, the “YAP1 (% UTC)” value under setting [7] turned out to be 52 % UTC.
For the substance “958807 (kT*k[5mC]*kA*dT*dT*dG*dT*dA*dG*dT*d[5mC]*dT*dG*kT*k[5mC]*kT; antisense) [Compound 958807]”, the “YAP1 (% UTC)” value under setting [1] stood at 3 % UTC.
For the substance “958514 (kT*kA*k[5mC]*dT*dA*dG*dT*d[5mC]*dA*dT*dG*dT*dA*kT*kT*k[5mC]; antisense) [Compound 958514]”, the “YAP1 (% UTC)” value under setting [6] is listed as 20 % UTC.
As to “958444 (antisense kA*k[5mC]*kG*d[5mC]*d[5mC]*d[5mC]*d[5mC]*dG*dG*d[5mC]*dT*d[5mC]*d[5mC]*kA*k[5mC]*kG) [Compound 958444]”, the “YAP1 (% UTC)” value under setting [6] came to 97 % UTC.
With “958806 (kT*kG*k[5mC]*d[5mC]*dT*dA*dG*dG*dG*dT*dT*d[5mC]*dT*kG*kT*kG; antisense) [Compound 958806]”, the “YAP1 (% UTC)” value under setting [8] turned out to be 30 % UTC.
Take “1074127 (k[5mC]*k[5mC]*kA*d[5mC]*dT*dG*dG*dT*d[5mC]*dT*dG*dG*d[5mC]*kG*kG*k[5mC]; antisense) [compound 1074127]”: the “YAP1 (% UTC)” value under setting [9] is listed as 57 % UTC.
Turning to “958533 (kG*k[5mC]*kA*dT*dA*dG*dA*dA*dG*dT*dA*dG*dG*kA*kG*k[5mC]; antisense) [Compound 958533]”, the “YAP1 (% UTC)” value under setting [4] is 3 % UTC.
As for “958699 (antisense kG*kA*k[5mC]*dT*dA*dG*dA*dA*dA*dG*dA*dT*d[5mC]*kA*kT*k[5mC]) [Compound 958699]”, the “YAP1 (% UTC)” value under setting [6] amounted to 20 % UTC.
For “1075245 (k[5mC]*k[5mC]*kT*dA*dA*dT*dA*dT*dG*d[5mC]*dT*dA*dT*kT*kG*kT; antisense) [compound 1075245]”, the “YAP1 (% UTC)” value under setting [7] is on record as 34 % UTC.
With “958413 (antisense k[5mC]*kT*kA*dG*dT*dA*dA*dT*d[5mC]*dT*dT*dA*d[5mC]*kT*kG*kG) [Compound 958413]”, under setting [10], the “YAP1 (% UTC)” value is 80 % UTC.
Regarding “958387 (antisense kG*kA*kG*dG*d[5mC]*dG*d[5mC]*dG*d[5mC]*dG*d[5mC]*dA*dT*kT*kG*kT) [Compound 958387]”, the “YAP1 (% UTC)” value under setting [10] worked out at 131 % UTC.
For the substance “958649 (kT*kG*k[5mC]*d[5mC]*dA*d[5mC]*dT*dG*dG*dT*dG*dA*dA*kT*kA*k[5mC]; antisense) [Compound 958649]”, under setting [6], the “YAP1 (% UTC)” value is 36 % UTC.
Turning to “958626 (antisense kT*kG*kG*dG*d[5mC]*dA*dA*dA*dG*dT*dT*d[5mC]*d[5mC]*kT*kA*kT) [Compound 958626]”, the “YAP1 (% UTC)” value under setting [8] is 158 % UTC.
Turning to “958780 (antisense kT*k[5mC]*kA*dA*d[5mC]*dT*dA*d[5mC]*dT*dT*dT*dT*d[5mC]*kA*kG*k[5mC]) [Compound 958780]”, the “YAP1 (% UTC)” value under setting [3] came out at 24 % UTC.
As to “1074670 (antisense kA*kA*kG*dT*dA*dG*d[5mC]*dT*dT*dT*dG*dA*dT*k[5mC]*kT*kT) [compound 1074670]”, the “YAP1 (% UTC)” value under setting [11] is on record as 49 % UTC.
On the same count and under the same terms, in the case of “1074862 (kT*kA*kT*dG*dA*dG*d[5mC]*dA*dT*dG*d[5mC]*dT*d[5mC]*kT*kT*kA; antisense) [compound 1074862]” it was 56 % UTC.
“958812 (kT*kA*k[5mC]*dT*dA*dT*dA*dA*dG*dA*d[5mC]*dA*d[5mC]*k[5mC]*kA*kA; antisense) [Compound 958812]”: the “YAP1 (% UTC)” value under setting [1] is 31 % UTC.
Regarding “958638 (antisense kG*kT*kG*d[5mC]*dG*dG*dA*dG*d[5mC]*dG*d[5mC]*dG*d[5mC]*kG*kG*kA) [Compound 958638]”, the “YAP1 (% UTC)” value under setting [4] turned out to be 127 % UTC.
“958375 (antisense kA*kA*kA*dG*d[5mC]*d[5mC]*dT*dT*dA*dG*dA*dG*dT*k[5mC]*kA*kA) [Compound 958375]”: the “YAP1 (% UTC)” value under setting [10] is reported as 2 % UTC.
Take “1076428 (kA*kT*kT*dA*dA*dA*dA*dA*dG*dA*dA*dG*d[5mC]*kA*k[5mC]*kG; antisense) [compound 1076428]”: the “YAP1 (% UTC)” value under setting [2] turned out to be 53 % UTC.
Turning to “1075117 (k[5mC]*k[5mC]*kT*d[5mC]*dA*dA*dT*dA*dG*d[5mC]*dA*dA*dG*kA*k[5mC]*kA; antisense) [compound 1075117]”, under setting [7], the “YAP1 (% UTC)” value was found to be 48 % UTC.
With “1075599 (antisense kA*k[5mC]*k[5mC]*d[5mC]*dT*dA*dT*dA*dG*d[5mC]*dT*dT*dT*kA*kG*kG) [compound 1075599]”, under setting [9], the “YAP1 (% UTC)” value turned out to be 90 % UTC.
In the case of “958362 (antisense kA*kG*k[5mC]*dT*d[5mC]*dG*dA*dA*d[5mC]*dA*dT*dG*d[5mC]*kT*kG*kT) [Compound 958362]”, the “YAP1 (% UTC)” value under setting [10] is given as 58 % UTC.
As for “958502 (k[5mC]*kT*kA*dT*dT*dA*dA*d[5mC]*dA*dG*dA*dT*dT*k[5mC]*kA*k[5mC]; antisense) [Compound 958502]”, the “YAP1 (% UTC)” value under setting [1] came out at 13 % UTC.
